Our source for the IC50 values is ChEMBL document CHEMBL1134876, “Sequence selective recognition of DNA by hairpin conjugates of a racemic seco-cyclopropaneindoline-2-benzofurancarboxamide and polyamides” (Bioorg Med Chem Lett, 2002).

The structures appear in SMILES notation. pIC50: −log10 of the molar value.

One may read the pIC50 as the IC50 on a negative log10 scale, so that one unit is a factor of ten. Low values mean a high IC50, high ones a low IC50.

One experiment concerns L1210. As to the kind of experiment: Cytotoxicity tested against L1210 (murine leukemia) cell line using MTT assay. It is filed as functional, cell-based. Particulars: Mus musculus. (In general: Tetrazolium dyes change colour on reduction, which living cells bring about.)
For a further experiment, the system named is P815. As to the kind of experiment: Cytotoxicity tested against P815 (murine mastocytoma) cell line using MTT assay. In kind it is functional, cell-based. As to conditions: Mus musculus.

In the case of `NCCCCNC(=O)c1nc(NC(=O)c2nc(NC(=O)CCCC(=O)Nc3ccc4oc(C(=O)N5CC(CCl)c6ccc(O)cc65)cc4c3)c[nH]2)c[nH]1` (stereo not drawn), the pIC50 with L1210 is 5.17; with P815 it was 4.28.
The matching figures for `NCCCCNC(=O)c1cc(NC(=O)c2nc(NC(=O)CCCC(=O)Nc3ccc4oc(C(=O)N5CC(CCl)c6ccc(O)cc65)cc4c3)c[nH]2)c[nH]1` (stereo not drawn): 4.35 and 4.11.
In the same order, the values of `NCCCCNC(=O)c1nc(NC(=O)c2cc(NC(=O)CCCC(=O)Nc3ccc4oc(C(=O)N5CC(CCl)c6ccc(O)cc65)cc4c3)c[nH]2)c[nH]1` (stereo not drawn) are 5.17 and 5.04.
As to `NCCCCNC(=O)c1cc(NC(=O)c2cc(NC(=O)CCCC(=O)Nc3ccc4oc(C(=O)N5CC(CCl)c6ccc(O)cc65)cc4c3)c[nH]2)c[nH]1` (stereo not drawn), the pIC50 is 4.55 in the experiment on L1210 and 4.39 in the experiment on P815.
